In the supplement of paper PMC11208160:

Test: recombinant UMI read abundance after kanamycin selection (control-corrected) (log10(CPM+1)); higher = more efficient recombination; extreme values may be limits of the assay; sequences stand for … in AGTGCAGAGAAAATCGGCCAGTTTTCTCTGCCTGCAGTCCGCATGCCGTGGGACCCCTTGGGTTCTAACCTGTTGCCTAGATTTATGCAGCGGACTGCCTTTCTCCCAAAGTGATAAACCGG…AGGTTGGTTTCACT; site = the 11-nt donor
How it was run: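 In Escherichia coli, a pool of donor and donor-binding-loop pairs, each with a 12-nt UMI, was tested for the IS621 bridge recombinase. Plating was on IPTG (0.07 mM) plus kanamycin, or without selection, in two replicates. Recombinant UMIs were amplified by PCR across the donor–target junction and sequenced, and counts were reported as log10(CPM+1) after averaging and control-derived scaling.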
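Further: IS621 bridge recombinase in Escherichia coli cells against a fixed T5 target plasmid.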

Sequence	recombinant UMI read abundance (log10)
GTTTAGGCATGGACCGGTTTTCCCGGTAATCCGTATTTGCA (site GTTTAGGCTTG)	2.03
ACCTAGACATGGACCGGTTTTCCCGGTAATCCGTATTTGGG (site ACCTAGACTTC)	0.00986
CCGTTTACATGGACCGGTTTTCCCGGTAATCCGTATTTGCT (site CCGTTTGCTAG)	0.00881
AGGACTACATGGACCGGTTTTCCCGGTAATCCGTATTTGAC (site AAGACTACTGT)	0.848
CCGTTAGCATGGACCGGTTTTCCCGGTAATCCGTATTTGGG (site CCGTTAGCTCC)	0.00956
CGGACAGCATGGACCGGTTTTCCCGGTAATCCGTATTTGCT (site CGGACATCTAG)	0
CGTGTAACATGGACCGGTTTTCCCGGTAATCCGTATTTGTT (site CGTGTAACTAA)	0.811
GGCAATCCATGGACCGGTTTTCCCGGTAATCCGTATTTGAA (site GGCACTCCTTT)	0
GACTTAGCATGGACCGGTTTTCCCGGTAATCCGTATTTGTG (site GACTTAGCTCA)	0.251
AGATTAGCATGGACCGGTTTTCCCGGTAATCCGTATTTGAC (site AGATTAGCTGT)	2.75
TAACCTTCATGGACCGGTTTTCCCGGTAATCCGTATTTGGT (site TAACCTTCTAC)	0.00557
GGCTCTACATGGACCGGTTTTCCCGGTAATCCGTATTTGGT (site GGCTCTACTAC)	0
ACGGCCTCATGGACCGGTTTTCCCGGTAATCCGTATTTGGT (site ACGGCCTCTAC)	2.1
CCATACTCATGGACCGGTTTTCCCGGTAATCCGTATTTGGC (site CCATACTCTGC)	0.585
CGAACATCATGGACCGGTTTTCCCGGTAATCCGTATTTGCC (site CGAACATCTGG)	0.671
ATCAAGACATGGACCGGTTTTCCCGGTAATCCGTATTTGCA (site AGGAAGACTTG)	0.783
GGTACGACATGGACCGGTTTTCCCGGTAATCCGTATTTGTT (site GGTACGCCTAA)	0.0177
AGCCTAGCATGGACCGGTTTTCCCGGTAATCCGTATTTGTT (site AGCGTAGCTAA)	0.00795
TAGCCTTCATGGACCGGTTTTCCCGGTAATCCGTATTTGGG (site TAGCCTTCTGC)	0
CCATAGTCATGGACCGGTTTTCCCGGTAATCCGTATTTGAA (site CCATAGTCTTT)	1.86
CGCCGTACATGGACCGGTTTTCCCGGTAATCCGTATTTGGT (site CGCCGTACTAG)	0
CTGCTACCATGGACCGGTTTTCCCGGTAATCCGTATTTGCG (site CTGCTACCTGG)	0
AGCCTTTCATGGACCGGTTTTCCCGGTAATCCGTATTTGAC (site AGCCTTTCTAT)	0
TCCAGCGCATGGACCGGTTTTCCCGGTAATCCGTATTTGCG (site TCCAACGCTCG)	0
ACATACACATGGACCGGTTTTCCCGGTAATCCGTATTTGAG (site ACATACACTCT)	1.79

Sequence	recombinant UMI read abundance (log10)
AATGTAACATGGACCGGTTTTCCCGGTAATCCGTATTTGCT (site AATGTACCTAG)	0
CATACGCCATGGACCGGTTTTCCCGGTAATCCGTATTTGGG (site CATACGCCTCC)	0.0136
GATTATCCATGGACCGGTTTTCCCGGTAATCCGTATTTGCT (site GATTAACCTAG)	0
GACGCCGCATGGACCGGTTTTCCCGGTAATCCGTATTTGAG (site GACGCCGCTCT)	0.349
CCATAGCCATGGACCGGTTTTCCCGGTAATCCGTATTTGCC (site CCCTAGCCTGG)	0
CAATGCTCATGGACCGGTTTTCCCGGTAATCCGTATTTGGA (site CAATGCTCTTC)	2.46
ATTCGTGCATGGACCGGTTTTCCCGGTAATCCGTATTTGTA (site ATTCGTGCTTA)	0.657
AATGTAACATGGACCGGTTTTCCCGGTAATCCGTATTTGCT (site AATGAAACTAG)	0.0158
ACCTAGACATGGACCGGTTTTCCCGGTAATCCGTATTTGGG (site ACCTAGACTAC)	0.0239
GATAAACCATGGACCGGTTTTCCCGGTAATCCGTATTTGGT (site GAAAAACCTAC)	0
GGCGAACCATGGACCGGTTTTCCCGGTAATCCGTATTTGGG (site GGCGAACCTCC)	0
GATGTGTCATGGACCGGTTTTCCCGGTAATCCGTATTTGAC (site CATGTGTCTGT)	0.736
CCTAGTGCATGGACCGGTTTTCCCGGTAATCCGTATTTGGT (site CCTAGTGCTAC)	0.533
CGGAATGCATGGACCGGTTTTCCCGGTAATCCGTATTTGTT (site CGGAATCCTAA)	0.00325
CGATGCTCATGGACCGGTTTTCCCGGTAATCCGTATTTGAA (site CCATGCTCTTT)	0.00345
GTAGTCGCATGGACCGGTTTTCCCGGTAATCCGTATTTGCG (site GTCGTCGCTCG)	0.00603
GTGGAGCCATGGACCGGTTTTCCCGGTAATCCGTATTTGAT (site GTGGAGCCTAT)	0.00342
GCTAGAACATGGACCGGTTTTCCCGGTAATCCGTATTTGAG (site ACTAGAACTCT)	0.959
TGTTCCGCATGGACCGGTTTTCCCGGTAATCCGTATTTGTA (site TGTTCCCCTTA)	0.0203
CTGCTGCCATGGACCGGTTTTCCCGGTAATCCGTATTTGCT (site CTGCTGCCTAG)	1.22
AACATACCATGGACCGGTTTTCCCGGTAATCCGTATTTGGA (site AACATACCTTC)	0.0114
CTAGTTTCATGGACCGGTTTTCCCGGTAATCCGTATTTGAA (site CTAGTATCTGT)	0
CAGTTGACATGGACCGGTTTTCCCGGTAATCCGTATTTGGG (site CAGTGGACTCC)	0.00569
CGGCAACCATGGACCGGTTTTCCCGGTAATCCGTATTTGAT (site CGGCAACCTAT)	0
AATAATTCATGGACCGGTTTTCCCGGTAATCCGTATTTGAT (site AATAATTCTAT)	0.955

Sequence	recombinant UMI read abundance (log10)
CGGAATCCATGGACCGGTTTTCCCGGTAATCCGTATTTGTC (site CGGAATCCTGA)	2.06
CTCTCCACATGGACCGGTTTTCCCGGTAATCCGTATTTGCT (site CTCTTCACTAG)	0.534
ATAAGATCATGGACCGGTTTTCCCGGTAATCCGTATTTGAA (site ATAAGATCTTT)	2.8
TCCACTGCATGGACCGGTTTTCCCGGTAATCCGTATTTGCG (site TCCACAGCTCG)	0
ACAGTATCATGGACCGGTTTTCCCGGTAATCCGTATTTGCA (site ACAGTATCTGG)	2.13
ACAGTATCATGGACCGGTTTTCCCGGTAATCCGTATTTGCA (site AAAGTATCTTC)	0.00296
CGGGAGTCATGGACCGGTTTTCCCGGTAATCCGTATTTGAC (site CGGGAGTCTGT)	0.147
CGTGTAACATGGACCGGTTTTCCCGGTAATCCGTATTTGTT (site CGTGGAACTAA)	0.0109
CTGCGGTCATGGACCGGTTTTCCCGGTAATCCGTATTTGTC (site CTGCGGTCTGA)	2.1
CTGGTAACATGGACCGGTTTTCCCGGTAATCCGTATTTGCA (site CTGGGAACTTG)	0
GGTAATCCATGGACCGGTTTTCCCGGTAATCCGTATTTGAA (site GGTAATCCTTT)	0.27
CCGAAGCCATGGACCGGTTTTCCCGGTAATCCGTATTTGGG (site GCGAAGCCTCC)	0.0226
ACTTGAACATGGACCGGTTTTCCCGGTAATCCGTATTTGAG (site ACTAGAACTCT)	0.0666
GTCGTCGCATGGACCGGTTTTCCCGGTAATCCGTATTTGCG (site GTCGTCGCTCG)	0.512
ATGCCGACATGGACCGGTTTTCCCGGTAATCCGTATTTGCA (site ATGCCGACTTG)	1.91
TAAAGCCCATGGACCGGTTTTCCCGGTAATCCGTATTTGTA (site TAAAGACCTTA)	0.00168
GATTGGACATGGACCGGTTTTCCCGGTAATCCGTATTTGAC (site GATTGGACTGA)	0.0103
GAAGATTCATGGACCGGTTTTCCCGGTAATCCGTATTTGTT (site GAAGAATCTAA)	1.3
GTAATAACATGGACCGGTTTTCCCGGTAATCCGTATTTGGG (site GTAATAACTCC)	0.656
CCCTTCTCATGGACCGGTTTTCCCGGTAATCCGTATTTGGG (site CCCCTCTCTCC)	0.0125
TAGCCTTCATGGACCGGTTTTCCCGGTAATCCGTATTTGGA (site TAGCCTTCTGC)	0
GCCTATACATGGACCGGTTTTCCCGGTAATCCGTATTTGAC (site GCCTATACTGT)	2.21
TCCACTGCATGGACCGGTTTTCCCGGTAATCCGTATTTGCG (site TCCACTGCTCG)	0.0111
GATTGGACATGGACCGGTTTTCCCGGTAATCCGTATTTGAC (site GATTGAACTGT)	0
GGATCACCATGGACCGGTTTTCCCGGTAATCCGTATTTGCT (site GGATCACCTAG)	0.0128
